Measurements from patent US6057311A, “Benzodiazonine derivatives binding to cholecystokinin or gastrin receptors” (James Black Foundation Limited, priority 1996, dated 2000).

How the values were obtained:
CCKB receptor = target: T1, CCKB receptor (Mus musculus, UniProt P56481); assay: radioligand binding assay at the CCKB receptor in mouse cortical membranes ([125I]-CCK8S); details: [125I]-CCK8S 200 pM, 150 min at 21±3° C.; for Ki: pH 7.2, read-out: pKi (Mouse cortex) (converted); for pKi (Mouse cortex): pH 7.2
T1 construct: The cortex was dissected, weighed and homogenised in 40 ml ice-cold buffer; tissue Charles River (animals); host or cells: cerebral cortex of male CD1 mice, membranes
T1 sequence (P56481 1-453): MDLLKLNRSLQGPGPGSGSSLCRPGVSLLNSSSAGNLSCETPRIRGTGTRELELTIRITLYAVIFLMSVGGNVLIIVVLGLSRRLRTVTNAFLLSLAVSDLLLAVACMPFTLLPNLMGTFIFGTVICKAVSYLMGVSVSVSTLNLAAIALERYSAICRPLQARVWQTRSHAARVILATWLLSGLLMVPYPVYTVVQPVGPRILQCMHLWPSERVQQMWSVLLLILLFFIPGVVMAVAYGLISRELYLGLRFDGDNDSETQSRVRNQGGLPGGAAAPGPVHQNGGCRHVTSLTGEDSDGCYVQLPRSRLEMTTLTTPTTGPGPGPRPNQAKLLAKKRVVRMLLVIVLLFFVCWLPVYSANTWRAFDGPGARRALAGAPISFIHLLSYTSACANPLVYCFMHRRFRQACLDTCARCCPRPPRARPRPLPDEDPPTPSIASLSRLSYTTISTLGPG
Experimental: The compounds of the examples were tested for binding at the CCKB receptor in mouse cortical membranes by means of a radioligand binding assay. The procedure was as follows:
The whole brains from male mice (CD1 22-25 g; Charles River) were removed and placed in ice-cold buffer (pH7.2@21±3° C.) of the following composition (mM); 10 HEPES, 130 NaCl, 4.7 KCl, 5 MgCl2, 1 EDTA and containing 0.25 g.1^-1 bacitracin. The cortex was dissected, weighed and homogenised in 40 ml ice-cold buffer using a Teflon-in-glass homogeniser. The homogenate was centrifuged at 39,800 g for 20 min at 4° C., the supernatant discarded and the pellet resuspended by homogenisation in fresh buffer. The homogenate was recentrifuged (39,800 g; 20 min @4° C.) and the final pellet was resuspended in HEPES buffer to give a tissue concentration of 2 mg.ml^-1 (original wet weight).
The membranes (400 μl) were incubated for 150 min at 21±3° C. in a final volume of 0.5 ml with HEPES buffer containing [^125 I]-CCK8S (0.05 ml; 200 pM NEN 2200 Ci.mmol^-1) and competing compound. Total and non-specific binding of [^125 I]-CCK8S were defined using 0.05 ml of buffer and 0.05 ml of […] L-365,260, respectively. The assay was terminated by rapid filtration through pre-soaked Whatman GF/B filters using a Brandell Cell harvester. The filters were washed (3×3 ml) with ice-cold 50 mM Tris-HCl (pH7.4@4° C.) and bound radioactivity determined by counting (1 min.) in a gamma-counter.

CCKA = target: T2, CCKA (Cavia porcellus, UniProt Q63931); assay: CCKA binding assay, guinea pig pancreas membranes ([125I]-CCK8(S)); details: [125I]-CCK8(S) 200 pM, 0.375 μM PD134,308, 150 min at 21±3° C., pH 7.2, read-out: pKi (Guinea pig pancreas) (converted)
T2 construct: The pancreatata were removed from male guinea-pigs; from tissue; host or cells: pancreas of male Dunkin Hartley guinea pigs, membranes
T2 sequence (Q63931 1-430): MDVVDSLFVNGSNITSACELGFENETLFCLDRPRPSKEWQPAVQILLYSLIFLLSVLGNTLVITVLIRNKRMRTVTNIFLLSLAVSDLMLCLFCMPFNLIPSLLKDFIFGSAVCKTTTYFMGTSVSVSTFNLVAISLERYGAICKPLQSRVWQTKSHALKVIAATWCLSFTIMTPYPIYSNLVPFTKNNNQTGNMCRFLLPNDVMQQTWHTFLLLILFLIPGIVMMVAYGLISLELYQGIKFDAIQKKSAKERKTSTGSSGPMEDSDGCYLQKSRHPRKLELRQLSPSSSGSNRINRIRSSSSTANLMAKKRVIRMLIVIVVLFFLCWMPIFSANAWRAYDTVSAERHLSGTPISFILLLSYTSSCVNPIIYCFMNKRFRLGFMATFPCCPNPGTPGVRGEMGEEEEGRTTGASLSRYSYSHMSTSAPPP
Experimental: The compounds of the examples were also tested in a CCKA binding assay as follows:
The pancreatata were removed from male guinea-pigs (200-300 g; Dunkin Hartley) and placed in ice-cold HEPES buffer (pH 7.2@21±3° C.). The pancreatata were homogenised in 40 ml ice-cold HEPES buffer using a polytron (Brinkmann, PT10, setting 10) 4×1 second. The homogenate was centrifuged at 39,800 g for 15 min at 4° C. The supernatant was discarded and the pellet re-suspended using a Teflon-in-glass homogeniser in 20 volumes of fresh buffer and re-centrifuged as above. The final pellet was re-suspended using a Teflon-in-glass homogeniser to a tissue concentration of 1 mg.ml^-1 (original wet weight), and filtered through 500 μm pore-size Nytex mesh.
The membranes (400 μl; containing 0.375 μM PD134,308) were incubated for 150 minutes at 21±3° C. in a final volume of 0.5 ml with HEPES buffer containing [^125 I]-CCK8 (S) (50 μl; 200 pM) and competing compound. Total and non-specific binding of [^125 I]-CCK8 (S) were defined using 50 μl of buffer and 50 μl of 100 nM L-364,718 respectively. The assay was terminated by rapid filtration through pre-soaked Whatman GF/B filters using a Brandell Cell Harvester. The filters were washed (3×3 ml) with ice-cold 50 mM Tris HCl (pH 7.4 at 4° C.) and bound radioactivity was determined by counting (1 min) in a gamma counter.

Question: Which Ki (CCKB receptor) does the source give for `COc1ccc2c(c1)C(=O)C[C@@H](C(=O)NCC(=O)O)N(C(C)=O)[C@H](CC13CC4CC(CC(C4)C1)C3)C(=O)N2Cc1ccccc1` (relative stereo) [Example 69, (+/-)-trans-4-acetyl-3-(1-adamantyl)methyl-1-benzyl-5-carboxymethylaminocarbonyl-2,7-dioxo-9-methoxy-2,3,4,5,6,7-hexahydro-1H-1,4-benzodiazonine] here?
Answer: 126 nM

Question: Which Ki (CCKB receptor) does the source give for `CC1CCN(C(=O)Nc2cc(C(=O)O)cc(C(=O)O)c2)CC(=O)N(Cc2ccccc2)c2ccccc21` (centres unmarked) [Example 47, 1-benzyl-7-methyl-4-(3,5-dicarboxyphenyl)carbamyl-2-oxo-2,3,4,5,6,7-hexahydro-1H-1,4-benzodiazonine] here?
Answer: 6310 nM

Question: How did the “pKi (Mouse cortex)” value (CCKB receptor) turn out when `CC1CCN(C(=O)Nc2cccc(C(=O)O)c2)CC(=O)N(Cc2ccccc2)c2ccccc21` (centres unmarked) [Example 48, 1-benzyl-7-methyl-4-(3-carboxyphenyl)carbamyl-2-oxo-2,3,4,5,6,7-hexahydro-1H-1,4-benzodiazonine] was run?
Answer: 4.8

Question: How did the Ki (CCKB receptor) turn out when `Cc1cccc(NC(=O)N2CCCc3ccccc3N(CC(=O)OC(C)(C)C)C(=O)C2)c1` [Example 49, 1-tert-butyloxycarbonylmethyl-4-(3-methylphenyl)carbamyl-2-oxo-2,3,4,5,6,7-hexahydro-1H-1,4-benzodiazonine] was run?
Answer: 6310 nM

Question: Which Ki (CCKA) does the source give for `CCC1CCN(C(=O)c2cc3ccccc3[nH]2)CC(=O)N(Cc2ccccc2)c2ccccc21` (centres unmarked) [Example 53, 1-benzyl-7-ethyl-4-(2-indolecarbonyl)-2-oxo-2,3,4,5,6,7-hexahydro-1H-1,4-benzodiazonine] here?
Answer: 631 nM

Question: With `Cc1cccc(NC(=O)N2CCCc3ccccc3N(Cc3ccccc3)C(=O)C2)c1` [Example 54, 1-benzyl-4-(3-methylphenyl)carbamyl-2-oxo-2,3,4,5,6,7-hexahydro-1H-1,4-benzodiazonine] as the molecule, how does the Ki (CCKB receptor) read?
Answer: 3980 nM

Question: Which Ki (CCKB receptor) does the source give for `CC(=O)N1[C@H](CC23CC4CC(CC(C4)C2)C3)C(=O)N(Cc2cccc(Cl)c2)c2ccccc2C(=O)C[C@H]1C(=O)NCC(=O)O` [Example 62, (3R,5S)-4-acetyl-3-(1-adamantyl)methyl-1-(3-chlorobenzyl)-5-carboxymethylaminocarbonyl-2,7-dioxo-2,3,4,5,6,7-hexahydro-1H-1,4-benzodiazonine] here?
Answer: 398 nM

Question: `CC(=O)N1[C@H](CC23CC4CC(CC(C4)C2)C3)C(=O)N(Cc2ccccc2F)c2ccccc2C(=O)C[C@H]1C(=O)NCC(=O)NS(C)(=O)=O` [Example 65, (3R,5S)-4-acetyl-3-(1-adamantyl)methyl-1-(2-fluorobenzyl)-5-methanesulphonamidocarboxymethylaminocarbonyl-2,7-dioxo-2,3,4,5,6,7-hexahydro-1H-1,4-benzodiazonine] was tested. Which Ki (CCKB receptor) did it give?
Answer: 398 nM

Question: For `CC(=O)N1[C@H](CC23CC4CC(CC(C4)C2)C3)C(=O)N(Cc2ccccc2F)c2ccccc2C(=O)C[C@H]1C(=O)N[C@@H](C)C(=O)NS(C)(=O)=O` [Example 66, (3R,5S)-4-acetyl-3-(1-adamantyl)methyl-1-(2-fluorobenzyl)-5-[(1S)-methanesulphonamidocarboxy]ethylaminocarbonyl-2,7-dioxo-2,3,4,5,6,7-hexahydro-1H-1,4-benzodiazonine], which Ki (CCKB receptor) is on record?
Answer: 501 nM

Question: `CC(=O)N1[C@H](CC23CC4CC(CC(C4)C2)C3)C(=O)N(Cc2ccccc2)c2ccccc2C(=O)C[C@H]1C(=O)NCc1nn[nH]n1` [Example 67, (3R,5S)-4-acetyl-3-(1-adamantyl)methyl-1-benzyl-5-tetrazolomethylaminocarbonyl-2,7-dioxo-2,3,4,5,6,7-hexahydro-1H-1,4-benzodiazonine] was tested. Which Ki (CCKB receptor) did it give?
Answer: 158 nM

Question: Which “pKi (Mouse cortex)” value (CCKB receptor) does the source give for `CC(=O)N1[C@H](CC23CC4CC(CC(C4)C2)C3)C(=O)N(Cc2ccccc2F)c2ccccc2C(=O)C[C@H]1C(=O)NCc1nn[nH]n1` [Example 68, (3R,5S)-4-acetyl-3-(1-adamantyl)methyl-1-(2-fluorobenzyl)-5-(5-tetrazolo)methylaminocarbonyl-2,7-dioxo-2,3,4,5,6,7-hexahydro-1H-1,4-benzodiazonine] here?
Answer: 6.8

Question: How did the Ki (CCKB receptor) turn out when `CC(=O)N1[C@H](CC23CC4CC(CC(C4)C2)C3)C(=O)N(Cc2cccc(C)c2)c2ccccc2C(=O)C[C@H]1C(=O)NCC(=O)O` [Example 71, (3R,5S)-4-acetyl-3-(1-adamantyl)methyl-1-(3-methylbenzyl)-5-carboxymethylaninocarbonyl-2,7-dioxo-2,3,4,5,6,7-hexahydro-1H-1,4-benzodiazonine] was run?
Answer: 1000 nM

Question: For `CC(=O)N1[C@H](CC23CC4CC(CC(C4)C2)C3)C(=O)N(Cc2ccc(C)cc2)c2ccccc2C(=O)C[C@H]1C(=O)NCC(=O)O` [Example 72, (3R,5S)-4-acetyl-3-(1-adamantyl)methyl-1-(4-methylbenzyl)-5-carboxymethylaminocarbonyl-2,7-dioxo-2,3,4,5,6,7-hexahydro-1H-1,4-benzodiazonine], which Ki (CCKB receptor) is on record?
Answer: 631 nM

Question: Which Ki (CCKB receptor) does the source give for `CC(=O)N1[C@@H](C(=O)NCC(=O)O)CC(=O)c2ccccc2N(Cc2ccccc2F)C(=O)[C@@H]1CC12CC3CC(CC(C3)C1)C2` [Example 73, (3S ,5R)-4-acetyl-3-(1-adamantyl)methyl-1-(2-fluorobenzyl)-5-carboxymethylaminocarbonyl-2,7-dioxo-2,3,4,5,6,7-hexahydro-1H-1,4-benzodiazonine] here?
Answer: 2510 nM

Question: For `CC(=O)N1[C@H](CC23CC4CC(CC(C4)C2)C3)C(=O)N(Cc2ccccc2C)c2ccccc2C(=O)C[C@H]1C(=O)NCC(=O)O` [Example 74, (3R,5S)-4-acetyl-3-(1-adamantyl)methyl-1-(2-methylbenzyl)-5-carboxymethylaminocarbonyl-2,7-dioxo-2,3,4,5,6,7-hexahydro-1H-1,4-benzodiazonine], which Ki (CCKB receptor) is on record?
Answer: 158 nM

Question: How did the “pKi (Mouse cortex)” value (CCKB receptor) turn out when `COc1ccc(CN2C(=O)[C@@H](CC34CC5CC(CC(C5)C3)C4)N(C(C)=O)[C@H](C(=O)NCC(=O)O)CC(=O)c3ccccc32)cc1` [Example 75, (3R,5S)-4-acetyl-3-(1-adamantyl)methyl-1-(4-methoxybenzyl)-5-carboxymethylaminocarbonyl-2,7-dioxo-2,3,4,5,6,7-hexahydro-1H-1,4-benzodiazonine] was run?
Answer: 5.9

Question: “(+/-)-trans-4-acetyl-3-(1-adamantyl)methyl-1-benzyl-5-carboxymethylaminocarbonyl-2,7-dioxo-9-methyl-2,3,4,5,6,7-hexahydro-1H-1,4-benzodiazonine [Example 70]” was tested. Which “pKi (Mouse cortex)” value (CCKB receptor) did it give?
Answer: 6.9
